Read-outs that look alike come from different tables or passages of the source.
Assays:
[1] = parameters: method as in earlier work; details: ref [19],[20], cited from earlier work
[2] = test system: eye; parameters: method as in PMID 12140180; details: ECETOC eye irritation data bank, ref [12], cited from earlier work; for European Union Irritation Class: Non-Irritating / European Union Irritation Class: R41 Risk of Serious Damage to Eye / European Union Irritation Class: R36 Irritating to Eye: tick = compound belongs to this class
[3] = MTT cell viability assay on Calu-3 cells after exposure to test solutions; type: cell-based, Human; details: human, 60 min incubation, MTT, relative to negative control, n = 4, read-out: Calu-3 %Viability ± SD; for viability at 60 min, 0.2 % w/v: 0.2% w/v test solution; for viability at 60 min, 1 % w/v: 1.0% w/v test solution
Protocol: (§1) The Calu-3 cells were used at passages 5–10. They were cultured in 96-well plates (Fisher Scientific) in 1:1 DMEM/F-12 supplemented with 10% FBS, 1% Glutamax®, 100 U/mL penicillin, and […] streptomycin using our previously described method. The tissue culture medium was changed every two days.
(§2) Irritant selection, concentration and exposure time were based on mucociliary clearance time and published work in which the compounds were used. […] In order to provide a basis for comparison with other published work using other models three concentrations of the chemicals were selected (0.2%, 0.4% and 1.0%). To initiate the experiments, the cells were washed 3 times with PBS and allowed to equilibrate in 100 µL of buffered DMEM/F-12 (without phenol red) for 30 min. […] Cells were observed under the microscope for detachment before discarding the test solutions. Subsequently, the effect of the test compounds on the cells was determined using MTT assay.
(§3) Cell viability screening was based on cellular mitochondrial dehydrogenase (MDH) activity, measured by MTT reduction and conversion to blue formazan salt that was quantified after extraction from cells. MTT was used for predicting respiratory irritation because several studies have shown correlation between reduction in cell viability, decrease in epithelial electrical resistance and increases in biomarkers such as IL-1α and IL-1β. Cells grown in 96-well plates were used for the studies. After exposure of the cells to the solution of test compounds, the solutions were discarded and 100 μL of MTT (5.0 mg/mL) added to each well and incubated for 3 h at 37 °C. Subsequently, the MTT solution was removed and replaced with 100 μL isopropyl alcohol. The plates were then wrapped in aluminium foil and incubated for 2 h at 37 °C in order to extract formazan from the cells. Extracted formazan salt was quantified spectrophotometrically at 570 nm using Synergy™ HT multimode microplate reader (BioTek Instruments Incorporated). The absorbance of isopropyl alcohol (100 μL) was used as blank. The reduction of cell viability in treated cells was compared to negative control (cells incubated with DMEM/F-12) and expressed as a percentage.
(§4) Data acceptance criteria, calculation steps, interpretation and prediction model was done using the ECVAM Skin irritation Validation Study as contained in Standard Operating Procedure of Validation of the EpiSkin™ Test Method ^15 min–42 h for the prediction of acute skin irritation of chemicals. This was chosen because the model, as well as the cell viability assay method (MTT) has been accepted by intergovernmental agencies as being able to distinguish between irritants and non-irritants. However, we modified drug exposure time to reflect respiratory route of administration (15–60 min). […] Test compounds with mean relative viability values of 50% and below were considered irritant (I); those above 50% were considered non-irritant (NI) according to the ECVAM protocol.

[4] = test system: Calu-3 cells; assay: as above; type: cell-based, Human; details: for Calu-3 model prediction (irritant if viability 50% and below) compared with European Union class / Calu-3 cells killed: 60 min exposure; for Calu-3 model prediction (irritant if viability 50% and below) compared with European Union class: ECVAM protocol; for Calu-3 %Viability ± SD: 60 min incubation, MTT, relative to negative control, n = 4; for Calu-3 cells killed: 0.2% w/v
Protocol: as §1, §2, §3, §4

[5] = test system: Arion lusitanicus; parameters: method as in Adriaens and Remon (2002) [12]; details: slug mucosal irritation model; ref Adriaens and Remon (2002) [12]; cited from earlier work

| Compound | Log p Octanol–Water [1] | European Union Irritation Class: Non-Irritating [2] | viability at 60 min, 0.2 % w/v ([3]; Calu-3 cells) [%] | viability at 60 min, 1 % w/v ([3]; Calu-3 cells) [%] | Calu-3 model prediction (irritant if viability 50% and below) compared with European Union class ([4]; 0.2% w/v test solution) | Calu-3 %Viability ± SD ([4]; 0.2% w/v test solution) | Calu-3 model prediction (irritant if viability 50% and below) compared with European Union class ([4]; 1.0% w/v test solution) | European Union Class ([2]; as listed in Table 2) | European Union Class ([2]; as listed in Table 3) | European Union Irritation Class: R41 Risk of Serious Damage to Eye [2] | Log p Octanol–Water ([1]; listed as acetone) | SMI model prediction compared with European Union class [5] | European Union Irritation Class: R36 Irritating to Eye [2] | Calu-3 %Viability ± SD ([4]; 0.2% w/v test solution, listed as acetone) | Calu-3 %Viability ± SD ([4]; 1.0% w/v test solution) [%] | viability at 60 min, 1 % w/v [3] [%] | Calu-3 cells killed [4] | Calu-3 %Viability ± SD ([4]; 1.0% w/v test solution, listed as sodium dodecyl sulphate USP) | Calu-3 %Viability ± SD ([4]; 1.0% w/v test solution, listed as sodium hydroxide) |
| --- | --- | --- | --- | --- | --- | --- | --- | --- | --- | --- | --- | --- | --- | --- | --- | --- | --- | --- | --- |
| CCCC(C)CO (stereo not drawn) [2-Methyl-1-pentanol] | 1.75 | √ | 95.3 ± 13.1 | 2.9 ± 0.2 | correctly predicted | 95.0 ± 13.1% | false positive |  |  |  |  |  |  |  |  |  |  |  |  |
| COCC(O)CO (stereo not drawn) [3-Methoxy-1,2-propanediol] | −1.20 | √ | 92.6 ± 4.1 | 90.7 ± 4.3 | correctly predicted |  |  |  |  |  |  |  |  |  |  |  |  |  |  |
| Nc1ccc(F)cc1 [4-Fluoroaniline] |  |  | 115 ± 5.9 | 75.6 ± 10.9 | false negatives |  | false negatives | R41 | R41 | √ |  |  |  |  |  |  |  |  |  |
| CC(C)=O [Acetone] | −0.24 |  |  |  | false negative | 100.4 ± 13.7% | false negatives | R36 | R36 |  | negative Log p values | false negative | √ | no significant effect on the cell viability | 95.4 ± 16.5 |  |  |  |  |
| CCO [Anhydrous ethanol] |  | √ |  |  | correctly predicted | 99.1 ± 3.9% |  |  |  |  |  |  |  |  | 90.3 ± 8.0 |  |  |  |  |
| CCCCCCCCCCCCCCCC[n+]1ccccc1 [Cetylpyridinium bromide] | 1.83 |  | 8.1 ± 1.1 | 5.4 ± 0.6 | correctly predicted |  | correctly predicted | R41 | R41 | √ |  | correct predictions |  |  |  | < 17 |  |  |  |
| OC1CCCCC1 [Cyclohexanol] | 1.23 |  |  |  | false negatives | 89.9 ± 14.3% | false negatives | R41 | R41 | √ |  |  |  |  | 78.7 ± 11.7 |  |  |  |  |
| OCC(O)CO [Glycerol] |  | √ | 85.6 ± 8.7 | 86.5 ± 7 | correctly predicted |  |  |  |  |  |  |  |  |  |  |  |  |  |  |
| c1c[nH]cn1 [Imidazole] |  |  |  |  |  |  |  | R41 | R41 |  |  |  |  |  |  |  |  |  |  |
| CC(=O)CC(C)C [Methyl isobutyl ketone] |  | √ | 73.2 ± 7.4 | 90.3 ± 7.1 | correctly identified as non-irritant | no significant effect on the cell viability |  |  |  |  |  | wrongly classified |  |  |  |  |  |  |  |
| CCCCCCCCCCCCOS(=O)(=O)[O-].[Na+] [Sodium dodecyl sulphate USP] | 1.60 |  |  |  | correctly predicted | 4.3 ± 0.1% | correctly predicted | R36 | R36 |  |  | over-predictions | √ |  | 9.0 ± 0.1 |  | more than 90% | less than 17% |  |
| [Na+].[OH-] [Sodium hydroxide] | 0 |  |  |  |  | 4.6 ± 0.4% | correctly predicted | R41 | R41 | √ |  |  |  |  | 14.9 ± 1.2 |  | about 95% |  | less than 17% |
| O=C([O-])C(=O)[O-].[Na+].[Na+] [Sodium oxalate] |  |  |  |  | false negative | 65.4 ± 4.0% | false negatives | R41 | R41 | √ |  |  |  |  | 64.5 ± 11.5 |  |  |  |  |
| Cc1ccccc1 [Toluene] |  | √ | 85.7 ± 13 | 110 ± 6.6 |  |  |  |  |  |  |  |  |  |  |  |  |  |  |  |
| PEG 400 | −1.21 | √ |  |  | correctly predicted | 91.5 ± 4.6% |  |  |  |  |  |  |  |  | 92.2 ± 15.9 |  |  |  |  |
| PEG 600 | −1.21 | √ |  |  | correctly predicted | 85.9 ± 13.4% |  |  |  |  |  |  |  |  | 81.7 ± 10.8 |  |  |  |  |
| Triton X-100 | 4.15 |  |  |  | correctly predicted | 3.5 ± 0.5% | correctly predicted | R36 | R36 |  |  | over-predictions | √ |  |  |  | more than 90% |  |  |
| Tween 20 | 2.39 | √ |  |  | correctly predicted | 57.1 ± 8.1% | false positive |  |  |  |  | correct predictions |  |  | 43.9 ± 2.5 |  |  |  |  |

Source: paper PMC4085599, “Preliminary Studies on Validation of Calu-3 Cell Line as a Model for Screening Respiratory Mucosa Irritation and Toxicity” (Pharmaceutics, 2014)
